# The source made the active and inactive calls.
# Experiments:
# Aminopeptidase N = biological target: T1, Aminopeptidase N (Plasmodium falciparum FcB1/Columbia, UniProt O96935); test: malaria alanyl aminopeptidase activity blockers – biochemical, fluorogenic H-Leu-NHMec substrate, 1536-well (AID 1445); design: species or system Plasmodium falciparum 3D7, 3D7
# T1 sequence (O96935 whole entry): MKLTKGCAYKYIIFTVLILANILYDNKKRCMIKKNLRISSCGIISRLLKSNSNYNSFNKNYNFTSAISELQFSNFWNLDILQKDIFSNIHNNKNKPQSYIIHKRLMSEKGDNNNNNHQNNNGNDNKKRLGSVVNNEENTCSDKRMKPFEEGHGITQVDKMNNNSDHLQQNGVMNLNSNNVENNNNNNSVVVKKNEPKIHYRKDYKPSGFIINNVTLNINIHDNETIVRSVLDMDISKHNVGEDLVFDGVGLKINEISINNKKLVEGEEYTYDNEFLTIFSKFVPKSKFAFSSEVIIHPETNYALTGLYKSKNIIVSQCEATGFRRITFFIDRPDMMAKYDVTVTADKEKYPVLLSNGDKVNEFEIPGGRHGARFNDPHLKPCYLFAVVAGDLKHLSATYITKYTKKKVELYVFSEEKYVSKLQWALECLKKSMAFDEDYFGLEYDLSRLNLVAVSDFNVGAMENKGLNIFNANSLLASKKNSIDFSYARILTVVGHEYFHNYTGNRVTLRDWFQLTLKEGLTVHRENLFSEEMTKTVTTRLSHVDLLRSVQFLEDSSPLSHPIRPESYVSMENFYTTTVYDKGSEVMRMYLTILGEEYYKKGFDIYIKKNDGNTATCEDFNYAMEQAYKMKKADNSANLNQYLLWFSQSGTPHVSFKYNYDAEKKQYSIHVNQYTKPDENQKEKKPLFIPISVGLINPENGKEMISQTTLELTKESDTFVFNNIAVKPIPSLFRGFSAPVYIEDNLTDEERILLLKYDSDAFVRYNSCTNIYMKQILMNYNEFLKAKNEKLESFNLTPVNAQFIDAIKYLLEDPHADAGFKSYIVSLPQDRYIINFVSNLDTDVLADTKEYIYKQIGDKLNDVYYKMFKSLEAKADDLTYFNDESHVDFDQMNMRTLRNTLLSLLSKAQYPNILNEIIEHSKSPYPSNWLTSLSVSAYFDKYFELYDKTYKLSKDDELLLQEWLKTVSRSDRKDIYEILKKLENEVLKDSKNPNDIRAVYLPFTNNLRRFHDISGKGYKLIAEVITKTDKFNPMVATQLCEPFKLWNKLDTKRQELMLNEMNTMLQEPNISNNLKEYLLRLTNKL
# Large T antigen = Large T antigen (Simian virus 40, UniProt P03070); type: functional, Betapolyomavirus macacae;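 note: Confirmatory-stage PubChem screen for compounds that inhibit SV40 T antigen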
# Chain of Large T antigen (P03070 whole entry): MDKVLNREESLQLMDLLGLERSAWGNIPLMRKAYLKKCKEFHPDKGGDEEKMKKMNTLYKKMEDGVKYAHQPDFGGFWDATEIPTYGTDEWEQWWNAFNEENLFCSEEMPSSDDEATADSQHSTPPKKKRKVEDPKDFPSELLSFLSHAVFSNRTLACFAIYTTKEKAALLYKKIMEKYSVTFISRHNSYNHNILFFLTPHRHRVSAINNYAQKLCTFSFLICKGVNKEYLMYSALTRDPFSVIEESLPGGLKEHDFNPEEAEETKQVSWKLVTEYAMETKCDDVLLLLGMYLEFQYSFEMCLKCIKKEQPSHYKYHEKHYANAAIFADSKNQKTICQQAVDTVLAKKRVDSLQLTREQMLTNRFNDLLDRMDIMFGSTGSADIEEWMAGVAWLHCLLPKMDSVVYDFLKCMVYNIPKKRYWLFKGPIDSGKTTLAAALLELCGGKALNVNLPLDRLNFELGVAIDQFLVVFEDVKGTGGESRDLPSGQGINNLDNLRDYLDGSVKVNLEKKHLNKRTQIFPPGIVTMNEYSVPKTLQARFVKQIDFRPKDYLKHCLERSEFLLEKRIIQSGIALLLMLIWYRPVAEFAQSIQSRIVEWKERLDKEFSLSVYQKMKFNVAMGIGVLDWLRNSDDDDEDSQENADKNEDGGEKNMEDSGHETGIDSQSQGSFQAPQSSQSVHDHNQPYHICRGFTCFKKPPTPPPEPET
# [1] = biological target: Induced myeloid leukemia cell differentiation protein Mcl-1 (Homo sapiens, UniProt Q07820); type: functional
# Chain of Induced myeloid leukemia cell differentiation protein Mcl-1 (Q07820 whole entry): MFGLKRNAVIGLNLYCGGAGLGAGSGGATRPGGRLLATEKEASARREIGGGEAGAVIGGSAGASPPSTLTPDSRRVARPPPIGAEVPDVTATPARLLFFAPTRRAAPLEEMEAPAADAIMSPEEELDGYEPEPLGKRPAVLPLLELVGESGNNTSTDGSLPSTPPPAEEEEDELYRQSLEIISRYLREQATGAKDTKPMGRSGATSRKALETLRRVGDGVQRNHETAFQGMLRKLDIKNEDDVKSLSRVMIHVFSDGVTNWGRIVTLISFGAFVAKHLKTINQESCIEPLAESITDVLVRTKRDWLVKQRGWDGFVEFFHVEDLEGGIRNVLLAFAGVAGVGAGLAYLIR
# [2] = biological target: T2, Oxysterols receptor LXR-beta (Homo sapiens, UniProt P55055); type: functional, cell-based
# T2 sequence (P55055 whole entry): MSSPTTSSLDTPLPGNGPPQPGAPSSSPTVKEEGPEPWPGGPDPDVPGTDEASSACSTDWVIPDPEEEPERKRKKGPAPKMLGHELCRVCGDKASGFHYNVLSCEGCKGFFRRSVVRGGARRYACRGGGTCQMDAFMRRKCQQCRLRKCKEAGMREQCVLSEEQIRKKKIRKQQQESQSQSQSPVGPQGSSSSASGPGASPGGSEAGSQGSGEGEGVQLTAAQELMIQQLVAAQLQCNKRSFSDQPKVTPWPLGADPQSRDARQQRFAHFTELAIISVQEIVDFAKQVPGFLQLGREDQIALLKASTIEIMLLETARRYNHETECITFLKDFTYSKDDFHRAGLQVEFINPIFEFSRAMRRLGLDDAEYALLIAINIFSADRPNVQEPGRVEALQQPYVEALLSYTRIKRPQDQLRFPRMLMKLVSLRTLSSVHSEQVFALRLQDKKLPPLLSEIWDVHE
# Paired box protein Pax-8 = Paired box protein Pax-8 (Homo sapiens, UniProt Q06710); test: PAX8 transcriptional activity inhibition in RMG-I – RMG-I cells, luciferase, cherry-pick, dose response (AID 687027); type: functional, cell-based;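 note: luciferase reporter driven by Pax8 target thyroperoxidase promoter measured by SteadyGlo luminescence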
# Chain of Paired box protein Pax-8 (Q06710 whole entry): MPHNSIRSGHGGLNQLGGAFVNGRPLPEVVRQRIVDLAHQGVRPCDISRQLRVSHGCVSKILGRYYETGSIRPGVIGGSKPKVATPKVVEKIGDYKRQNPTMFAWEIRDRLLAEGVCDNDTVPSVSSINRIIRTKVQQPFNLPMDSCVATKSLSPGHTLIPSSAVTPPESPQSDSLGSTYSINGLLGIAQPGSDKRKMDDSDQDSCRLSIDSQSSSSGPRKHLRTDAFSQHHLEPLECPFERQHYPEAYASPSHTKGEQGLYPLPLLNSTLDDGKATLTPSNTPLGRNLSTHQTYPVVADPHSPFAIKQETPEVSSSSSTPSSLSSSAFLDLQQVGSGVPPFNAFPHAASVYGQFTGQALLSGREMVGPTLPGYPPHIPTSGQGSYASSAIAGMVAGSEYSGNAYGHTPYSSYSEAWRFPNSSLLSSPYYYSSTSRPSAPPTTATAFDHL
# [3] = A2780 cell killing – plate reader, dry powder samples, cytotoxicity control, dose response (AID 743046); type: functional, cell-based
# [4] = OVCAR-3 cell viability loss – plate reader, dry powder samples, PAX8 inhibitor project, dose response (AID 743044); type: functional, cell-based
# [5] = OVCAR8 cell viability loss – plate reader, dry powder samples, PAX8 project, dose response (AID 743197); type: functional, cell-based; conditions: OVCAR-8
# Caspase-3 = biological target: T3, Caspase-3 (Homo sapiens, UniProt P42574); type: functional;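 note: Dose-response selectivity test against caspase-3 for candidate inhibitors of sentrin-specific proteases (SENPs)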
# T3 sequence (P42574 whole entry): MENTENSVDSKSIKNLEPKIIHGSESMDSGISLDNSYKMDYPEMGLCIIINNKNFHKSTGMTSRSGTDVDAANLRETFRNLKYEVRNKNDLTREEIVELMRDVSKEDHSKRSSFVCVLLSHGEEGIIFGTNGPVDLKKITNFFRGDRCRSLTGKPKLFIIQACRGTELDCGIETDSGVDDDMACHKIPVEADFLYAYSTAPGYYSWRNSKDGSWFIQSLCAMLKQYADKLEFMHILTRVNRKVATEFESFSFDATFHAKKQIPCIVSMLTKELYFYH
# [6] = biological target: T4, Sentrin-specific protease 7 (Homo sapiens, UniProt Q9BQF6); type: functional;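 note: Luminescence-based dose-response confirmation of ultra-high-throughput screening hits, measuring inhibition of SENP7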
# T4 sequence (Q9BQF6 whole entry): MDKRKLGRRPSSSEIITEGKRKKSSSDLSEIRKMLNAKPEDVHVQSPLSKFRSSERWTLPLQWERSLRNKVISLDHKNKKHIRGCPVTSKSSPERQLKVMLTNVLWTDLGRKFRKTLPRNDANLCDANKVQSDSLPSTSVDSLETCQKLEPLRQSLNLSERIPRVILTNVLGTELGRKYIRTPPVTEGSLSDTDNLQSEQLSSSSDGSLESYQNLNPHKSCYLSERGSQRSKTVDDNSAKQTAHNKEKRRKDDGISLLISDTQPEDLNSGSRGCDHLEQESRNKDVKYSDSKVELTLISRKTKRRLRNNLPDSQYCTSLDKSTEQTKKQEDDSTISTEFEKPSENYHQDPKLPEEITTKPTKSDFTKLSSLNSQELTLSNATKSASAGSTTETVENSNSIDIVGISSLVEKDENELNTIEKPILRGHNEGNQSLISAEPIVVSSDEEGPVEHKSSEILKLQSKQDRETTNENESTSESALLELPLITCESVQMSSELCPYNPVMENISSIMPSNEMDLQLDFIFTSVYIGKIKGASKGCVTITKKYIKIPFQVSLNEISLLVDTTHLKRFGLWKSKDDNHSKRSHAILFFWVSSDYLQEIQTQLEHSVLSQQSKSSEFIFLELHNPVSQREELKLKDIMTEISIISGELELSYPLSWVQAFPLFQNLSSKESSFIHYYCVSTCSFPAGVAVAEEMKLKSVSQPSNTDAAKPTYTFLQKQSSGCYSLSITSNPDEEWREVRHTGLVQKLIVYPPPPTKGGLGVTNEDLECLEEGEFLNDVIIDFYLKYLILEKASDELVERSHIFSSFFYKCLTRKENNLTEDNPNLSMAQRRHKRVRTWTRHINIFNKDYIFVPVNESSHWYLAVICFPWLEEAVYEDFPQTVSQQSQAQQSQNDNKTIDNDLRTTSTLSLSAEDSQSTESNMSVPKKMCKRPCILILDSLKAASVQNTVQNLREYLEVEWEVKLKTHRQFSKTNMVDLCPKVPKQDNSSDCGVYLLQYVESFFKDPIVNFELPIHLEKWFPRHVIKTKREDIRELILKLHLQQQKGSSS
# [7] = biological target: T5, Sentrin-specific protease 6 (Homo sapiens, UniProt Q9GZR1); type: functional;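 note: Luminescence-based dose-response confirmatory assay of SENP6 inhibition, following up an ultra-high-throughput screen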
# T5 sequence (Q9GZR1 whole entry): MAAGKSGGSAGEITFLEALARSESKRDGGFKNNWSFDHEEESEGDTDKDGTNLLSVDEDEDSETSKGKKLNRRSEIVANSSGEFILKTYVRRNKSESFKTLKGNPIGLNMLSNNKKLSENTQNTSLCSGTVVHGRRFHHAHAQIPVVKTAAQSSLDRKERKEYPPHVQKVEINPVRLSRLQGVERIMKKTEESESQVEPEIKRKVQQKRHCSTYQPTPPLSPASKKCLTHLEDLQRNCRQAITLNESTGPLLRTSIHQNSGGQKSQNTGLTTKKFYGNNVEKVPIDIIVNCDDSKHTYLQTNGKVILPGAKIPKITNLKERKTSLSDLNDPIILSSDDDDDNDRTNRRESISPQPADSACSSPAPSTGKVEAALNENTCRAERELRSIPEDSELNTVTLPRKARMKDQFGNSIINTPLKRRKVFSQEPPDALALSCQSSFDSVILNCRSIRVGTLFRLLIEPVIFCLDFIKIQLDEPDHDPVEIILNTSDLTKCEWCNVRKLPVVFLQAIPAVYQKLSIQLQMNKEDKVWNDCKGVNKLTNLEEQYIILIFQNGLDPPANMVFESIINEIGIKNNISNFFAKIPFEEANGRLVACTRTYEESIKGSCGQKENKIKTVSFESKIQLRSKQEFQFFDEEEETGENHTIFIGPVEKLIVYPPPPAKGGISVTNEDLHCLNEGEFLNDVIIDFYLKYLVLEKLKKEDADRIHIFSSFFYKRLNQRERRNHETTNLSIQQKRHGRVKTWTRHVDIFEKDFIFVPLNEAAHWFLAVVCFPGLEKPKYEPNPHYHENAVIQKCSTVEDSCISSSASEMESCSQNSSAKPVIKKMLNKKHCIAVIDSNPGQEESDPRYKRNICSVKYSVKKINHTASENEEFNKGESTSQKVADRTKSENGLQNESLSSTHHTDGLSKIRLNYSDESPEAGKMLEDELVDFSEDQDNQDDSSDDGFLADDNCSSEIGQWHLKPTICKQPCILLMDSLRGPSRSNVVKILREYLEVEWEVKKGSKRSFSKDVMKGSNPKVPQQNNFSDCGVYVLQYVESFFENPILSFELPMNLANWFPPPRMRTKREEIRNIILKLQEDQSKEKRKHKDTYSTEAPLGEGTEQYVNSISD
# [8] = biological target: T6, Sentrin-specific protease 8 (Homo sapiens, UniProt Q96LD8); type: functional;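 note: luminescence read-out of SENP8 inhibition, dose-response confirmation following an ultra-high-throughput screen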
# T6 sequence (Q96LD8 whole entry): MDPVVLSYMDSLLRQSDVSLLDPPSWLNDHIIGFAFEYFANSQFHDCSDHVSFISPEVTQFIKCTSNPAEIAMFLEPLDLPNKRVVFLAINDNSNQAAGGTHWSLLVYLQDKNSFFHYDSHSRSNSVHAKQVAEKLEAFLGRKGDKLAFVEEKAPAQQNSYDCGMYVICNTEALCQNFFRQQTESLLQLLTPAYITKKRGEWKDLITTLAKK
# [9] = Luminescence-based cell-based high throughput dose response assay to identify activators of the DAF-12 from the parasite S. stercoralis (ssDAF-12).; type: functional
# [10] = biological target: T2, Oxysterols receptor LXR-beta; test: LXR agonists, Gal4 luciferase reporter, dose response, counter-screen for ssDAF-12 agonist project, cell-based, luminescence, HEK293, S. stercoralis campaign (AID 720737); type: functional; conditions: read-out: IC50 (the source's name)
# [11] = biological target: T2, Oxysterols receptor LXR-beta; type: functional, cell-based; remark: listed apart in the source
compound,measurement,setting,value
COc1cc(/C=C2/C(=N)N3N=C(c4ccc(C)cc4)SC3=NC2=O)ccc1O,IC50,Aminopeptidase N,66.1 µM (active)
same,IC50,Large T antigen,7.62 µM (active)
same,IC50,[1],3.26 µM (active)
same,EC50,[2],> 67.5 µM (inactive)
Cc1ccccc1S(=O)(=O)N1CC[C@@H]2[C@H](CO)Nc3ccc(-c4cccc(F)c4)cc3[C@@H]21,AC50,Paired box protein Pax-8,13.6 µM (active)
same,AC50,[3],0.711 µM (active)
same,AC50,[4],53.8 µM (active)
same,AC50,[5],46.7 µM (active)
Cc1ccc(Nc2nc(-c3cccnc3)cs2)cc1C,IC50,Caspase-3,34.4 µM (active)
same,IC50,[6],5.02 µM (active)
same,IC50,[7],7.01 µM (active)
same,IC50,[8],7.16 µM (active)
same,IC50,[9],> 67.6 µM (inactive)
same,EC50,[10],> 67.6 µM (inactive)
same,EC50,[11],> 67.6 µM (inactive)
same,EC50,cells,> 67.6 µM (inactive)
Cc1ccc(-c2noc(-c3ccccc3Br)n2)cc1,EC50,[11],> 67.5 µM (inactive)
same,EC50,cells,> 67.5 µM (inactive)

# From ChEMBL document CHEMBL1201862, “PubChem BioAssay data set” (2004)
